Assay results as given in publication PMC12081876, “Identification of PTGR2 inhibitors as a new therapeutic strategy for diabetes and obesity” (EMBO Molecular Medicine, 2025).
Where “and” joins values, the source holds several entries; their conditions need not be identical. Equal values may be shown once.

Tests used:
Ucp1 = experiment: Relative Ucp1 expression in fat depots (RT-qPCR); type: in vivo, mouse; conditions: 40 mg/kg/day ip, HFHSD-fed mice, vs vehicle
mPPARγ LBD H351A mutant = biological target: T1, mPPARγ LBD H351A mutant (Mus musculus, UniProt P37238, H351A); experiment: Native mass spectrometry ligand binding, mPPARγ LBD H351A; parameters: species or system murine
T1 construct: mPPARγ LBD H351A mutant
Description: Wide-type mPPARγ ligand binding domain (LBD), mPPARγ LBD C313A mutant, and mPPARγ LBD H351A mutant were mixed together in a 1:1:1 molar ratio and then incubated with 15-keto-PEG2 or pioglitazone in a 1:10 molar ratio for 5 min at room temperature, respectively. The protein mixture was buffer-exchanged into 500 mM ammonium acetate buffer pH 7.5 using 7 K Zeba™ Spin Desalting Column (cat. no, 89877, Thermo) and immediately introduced into a modified Q-Exactive mass spectrometer (Thermo). The sets of optimized parameters were applied to analyze the ligand binding, including the higher-energy collisional dissociation (HCD) energy of 20 V; spray voltage, 1.1 kV; capillary temperature, 200 °C; S-lens RF level, 200; and resolution, 12,500 at m/z 400. Spectra were acquired and processed manually using Thermo Xcalibur Qual Browser (version 4.4.16.14). The relative percentage of compound-bound forms was quantified by the UniDec software and the degree of effector coupling was calculated by normalizing the relative percentage of bound forms to the sum of the percentage of unbound and bound forms.

[1] = system: HFHSD-fed obese C57BL6/J mice; experiment: Cold tolerance test (cold-induced thermogenesis); type: in vivo, mouse; conditions: for interscapular area temperature, Average / interscapular area temperature: Figure 2T left panel; for interscapular area temperature, Average / rectal temperatures, Average: average of 12 mice; for interscapular area temperature, Average / interscapular area temperature / inguinal area temperature / rectal temperatures, Average / rectal temperatures: in °C (unit assumed); for interscapular area temperature / inguinal area temperature / rectal temperatures: individual mice; for inguinal area temperature: Figure 2T middle panel; for rectal temperatures, Average / rectal temperatures: Figure 2T right panel; for temperature, Figure 2T middle panel, Average: in °C
Description: For the cold tolerance test, 24-week-old mice with matched average body weight from the two groups were placed individually on HFHSD in a 4 °C chamber. The rectal temperature of the mice was measured after 0, 1, 2, 3, 4, 5, 6, 12, and 18 h. For measuring diet-induced thermogenesis, 24-week-old mice were fasted overnight for 18 h. Then, we measured their rectal temperature at 0, 30, 60, 90, 120, 150, 180, and 240 min after HFHSD refeeding. The rectal and surface temperature were detected by thermal probes (Physitemp Therma TH-5, ThermoWorks, Alpine and MicroTherma 2T, ThermoWorks, Alpine, respectively).

Myc-DDK-mPPARγ = biological target: T2, Myc-DDK-mPPARγ (Mus musculus, UniProt P37238); experiment: Reciprocal co-immunoprecipitation in HEK293T cells, wild-type mPPARγ; type: binding, murine; conditions: 15-keto-PGE2 treated
T2 construct: host or cells: HEK293T
Description: HEK293T cells were transfected with murin PPARγ (mPPARγ) and mPPARγ C313A plasmids for immunoprecipitation, which are Myc-DDK-tagged (OriGene, USA). […] According to the manufacturer’s protocol, proteins were immunoprecipitated using Anti-FLAG® M2 Magnetic Beads (2.5 mg/ml; cat. no. F1804, Sigma-Aldrich). Subsequently, the eluted proteins were separated by SDS-PAGE and subjected to immunoblot analysis. Following separation by SDS-PAGE, proteins were stained with Coomassie blue and SYPRO-Ruby stain. The protein bands of interest were cut out for in-gel tryptic digestion followed by C18 Zip-Tip clean-up (Millipore, USA). For proteomic shotgun identifications, nanoLC-nanoESI-MS/MS analysis was performed on a nanoAcquity system (Waters, USA) connected to the LTQ Orbitrap Velos hybrid MS (Thermo Electron, USA) equipped with a PicoView nanospray interface (New Objective, USA). Samples were loaded onto a C18 BEH column (75 μm × 25 cm length, 130 Å, 1.7 μm particle size) (Waters, USA) and separated by a segmented gradient form in 60 min from 5% to 40% acetonitrile (with 0.1% formic acid) at a constant flow rate of 300 nL/min with a column temperature of 35 °C. The mass spectrometer was operated in the data-dependent mode. […] Protein identification and modification were analyzed using Mascot Daemon (Matrix Science Inc., Chicago). […]

T2 sequence (P37238 whole entry): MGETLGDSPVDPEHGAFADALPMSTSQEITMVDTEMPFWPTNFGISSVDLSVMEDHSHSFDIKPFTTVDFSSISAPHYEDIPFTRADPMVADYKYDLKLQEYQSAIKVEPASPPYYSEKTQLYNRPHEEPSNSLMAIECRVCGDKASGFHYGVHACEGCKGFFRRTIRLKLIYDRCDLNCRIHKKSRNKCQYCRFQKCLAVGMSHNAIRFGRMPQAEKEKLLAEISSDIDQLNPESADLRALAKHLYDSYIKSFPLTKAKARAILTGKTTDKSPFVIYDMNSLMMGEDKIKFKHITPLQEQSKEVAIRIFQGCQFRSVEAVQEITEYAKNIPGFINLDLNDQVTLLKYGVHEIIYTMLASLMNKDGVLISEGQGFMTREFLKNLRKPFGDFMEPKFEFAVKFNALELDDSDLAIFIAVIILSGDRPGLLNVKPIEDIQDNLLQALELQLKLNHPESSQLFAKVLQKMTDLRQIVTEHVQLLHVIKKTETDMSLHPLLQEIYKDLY
T1 sequence (P37238 238-503 H351A limits assumed): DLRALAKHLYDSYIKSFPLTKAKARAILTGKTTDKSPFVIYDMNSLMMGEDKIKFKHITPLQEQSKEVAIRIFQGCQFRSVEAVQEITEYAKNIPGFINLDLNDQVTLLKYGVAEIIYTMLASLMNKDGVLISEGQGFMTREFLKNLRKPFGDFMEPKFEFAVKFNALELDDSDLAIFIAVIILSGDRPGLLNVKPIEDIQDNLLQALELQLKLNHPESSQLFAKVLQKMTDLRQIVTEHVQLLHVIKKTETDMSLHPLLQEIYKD

## CCCCCC(=O)/C=C/[C@H]1[C@H](O)CC(=O)[C@@H]1C/C=C\CCCC(=O)O [15-keto-PGE2, 15-keto-prostaglandin E2]
Ucp1
  expression of Ucp1 in fat depots: increased expression of Ucp1 in inguinal, perigonadal, and brown adipose tissues
mPPARγ LBD H351A mutant
  effect of H351A mutation on binding (native MS): only a minor impact on 15-keto-PGE2 binding
[1]; 40 mg/kg/day ip, vs vehicle
  interscapular, inguinal and rectal temperatures during cold test: higher interscapular, inguinal, and rectal temperatures than vehicle controls during prolonged cold tests
[1]; period 0 hr
  interscapular area temperature, Average: 38.275
  interscapular area temperature: 37.4 and 37.9 and 38.2 and 38.1 and 38.9
  inguinal area temperature: 36.2 and 36.9 and 37.2
  rectal temperatures, Average: 37.9667
  rectal temperatures: 37.6 and 38.1 and 38.5 and 37.9 and 36.3 and 38.3 and 38
[1]; period 1 hr
  interscapular area temperature, Average: 37.6917
  interscapular area temperature: 37.1 and 37.5 and 37.2 and 37.9 and 37.4
  inguinal area temperature: 36.2 and 36.8
  rectal temperatures, Average: 37.1667
  rectal temperatures: 37 and 37.2 and 37.1 and 37.3 and 36.6 and 37.4 and 37.8 and 37.6
[1]; period 2 hr
  interscapular area temperature, Average: 37.3583
  interscapular area temperature: 37.4 and 37.2 and 36.9 and 37.8 and 37.6 and 36.4
  inguinal area temperature: 35.8 and 34.9
  rectal temperatures, Average: 36.6917
  rectal temperatures: 37.4 and 35.2 and 36.3 and 37 and 37.2 and 36.8 and 36.6 and 36.9 and 36.1 and 36.4
[1]; period 3 hr
  interscapular area temperature, Average: 37.0083
  interscapular area temperature: 37.2 and 37.1 and 36.5 and 37.3 and 37.5 and 36.4
  inguinal area temperature: 35.5 and 34.7
  rectal temperatures, Average: 36.45
  rectal temperatures: 36.7 and 36 and 36.6 and 36.9 and 35.8 and 37.5 and 36.3 and 36.2 and 36.1 and 36.4
[1]; period 4 hr
  interscapular area temperature, Average: 37.0083
  interscapular area temperature: 37 and 36.8 and 37.6 and 37.3 and 36.2
  inguinal area temperature: 35 and 34.8
  rectal temperatures, Average: 36.45
  rectal temperatures: 37 and 36.2 and 36.8 and 37.2 and 36.7 and 36 and 35.7 and 36.4
[1]; period 5 hr
  interscapular area temperature, Average: 36.8917
  interscapular area temperature: 36.5 and 37 and 36.7 and 36.9 and 37.1
  inguinal area temperature: 34.9 and 34.7
  rectal temperatures, Average: 36.4167
  rectal temperatures: 37.6 and 36.4 and 36.3 and 36.1 and 36.5 and 36.7 and 35.8 and 36.2
[1]; period 6 hr
  interscapular area temperature, Average: 36.7583
  interscapular area temperature: 36.2 and 36.3 and 36.9 and 37.9 and 37
  inguinal area temperature: 35.2 and 34.9
  rectal temperatures, Average: 36.4167
  rectal temperatures: 36.8 and 36.6 and 36.4 and 35.6 and 37.3 and 36.1 and 36 and 35.5
[1]; period 12 hr
  interscapular area temperature, Average: 35.6833
  interscapular area temperature: 36.2 and 37.5 and 34.9 and 35.7 and 35.4
  inguinal area temperature: 32.9 and 34.1
  rectal temperatures, Average: 35.6917
  rectal temperatures: 35.9 and 37.5 and 34.2 and 35.3 and 37.6 and 34.5 and 35.2 and 36.3 and 37.9
[1]; period 18 hr
  interscapular area temperature, Average: 34.8333
  interscapular area temperature: 36.3 and 35.5 and 33.6 and 33.9 and 35.7
  inguinal area temperature: 33.2 and 33.7
  rectal temperatures, Average: 34.025
  rectal temperatures: 35.7 and 34.9 and 33 and 33.1 and 34.8 and 34.6 and 32 and 34.5 and 33.4 and 33.6 and 34.2
[1]; time 0
  temperature, Figure 2T middle panel, Average: 36.2
[1]; time 1
  temperature, Figure 2T middle panel, Average: 36.0083
[1]; time 2
  temperature, Figure 2T middle panel, Average: 35.325
[1]; time 3
  temperature, Figure 2T middle panel, Average: 35.0083
[1]; time 4
  temperature, Figure 2T middle panel, Average: 34.8083
[1]; time 5
  temperature, Figure 2T middle panel, Average: 34.6417
[1]; time 6
  temperature, Figure 2T middle panel, Average: 34.6417
[1]; time 12
  temperature, Figure 2T middle panel, Average: 34.375
[1]; time 18
  temperature, Figure 2T middle panel, Average: 33.2583
Myc-DDK-mPPARγ
  co-immunoprecipitation with 15-keto-PGE2-cysteine antibody, wild-type mPPARγ: A single band of PPARγ (57 kDa) was detected
